Data: patent US9283213B2, “Dihydropyridin-2(1H)-one compounds as S-nitrosoglutathione reductase inhibitors and neurokinin-3 receptor antagonists” (N30 Pharmaceuticals, Inc., priority 2010, dated 2016)

How the values were obtained:
GSNOR = biological target: T1, GSNOR (Homo sapiens, UniProt P11766); assay: GSNOR assay (inhibition of GSNOR activity in vitro); format: biochemical; conditions: 0.240 mM GSNO, 0.300 mM NADH, pH 7.4, 25° C.; read-out: GSNOR inhibitor IC50
T1 construct: made in house; host or cells: E. coli
Protocol: Various compounds were tested in vitro for their ability to inhibit GSNOR activity.
Pre-cultures were grown from stabs of a GSNOR glycerol stock in 2XYT media containing 100 ug/ml ampicillin after an overnight incubation at 37° C. Cells were then added to fresh 2XYT (4 L) containing ampicillin and grown to an OD (A600) of 0.6-0.9 at 37° C. before induction. GSNOR expression was induced with 0.1% arabinose in an overnight incubation at 20° C.
E. coli cell paste was lysed by nitrogen cavitation and the clarified lysate purified by Ni affinity chromatography on an AKTA FPLC (Amersham Pharmacia). The column was eluted in 20 mM Tris pH 8.0/250 mM NaCl with a 0-500 mM imidazole gradient. […] GSNOR was recovered in the flowthrough fraction and for crystallography is further purified by Q-Sepharose and Heparin flowthrough chromatography in 20 mM Tris pH 8.0, 1 mM DTT, 10 uM ZnSO4.
GSNO and Enzyme/NADH Solutions are made up fresh each day. The Solutions are filtered and allowed to warm to room temperature. GSNO Solution: 100 mM NaPO4 (pH 7.4), 0.480 mM GSNO. 396 μL of GSNO Solution is added to a cuvette followed by 8 μL of test compound in DMSO (or DMSO only for full reaction control) and mixed with the pipette tip. Compounds to be tested are made up at a stock concentration of 10 mM in 100% DMSO. 2 fold serial dilutions are done in 100% DMSO. 8 μL of each dilution are added to an assay so that the final concentration of DMSO in the assay is 1%. The concentrations of compounds tested range from 100 to 0.003 μM. Enzyme/NADH Solution: 100 mM NaPO4 (pH 7.4), 0.600 mM NADH, 1.0 μg/mL GSNO Reductase. 396 μL of the Enzyme/NADH Solution is added to the cuvette to start the reaction. The cuvette is placed in the Cary 3E UV/Visible Spectrophotometer and the change in 340 nm absorbance/min at 25° C. is recorded for 3 minutes. The assays are done in triplicate for each compound concentration. IC50's for each compound are calculated using the standard curve analysis in the Enzyme Kinetics Module of SigmaPlot.
Final assay conditions: 100 mM NaPO4, pH 7.4, 0.240 mM GSNO, 0.300 mM NADH, 0.5 μg/mL GSNO Reductase and 1% DMSO. Final volume: 800 μL/cuvette.

[1] = Mouse pharmacokinetic (PK) study; format: in vivo; conditions: plasma, male BALB/c mice, PO 10 mg/kg vs IV 2 mg/kg, read-out: oral bioavailability (% F)
Description: The mouse is used to determine the pharmacokinetics of compounds of the invention. This species is widely used to assess the bioavailability of compounds by administering both oral (PO) and intravenous (IV) test articles. Efficacy of the compounds of the invention are compared by assessing plasma exposure in male BALB/c mice either via IV or PO administration at the times of peak activity.
Compounds of the invention are reconstituted in a phosphate buffered saline (PBS)/10% Solutol (HS 15) clear solution resulting in a concentration of 0.2 mg/mL and administered to mice (2 mg/kg) as a single IV dose. Animals dosed via the lateral tail vein. […] The plasma is transferred into labeled polypropylene tubes and frozen at −70° C. until analyzed by LC/MS/MS.
The compounds of the invention are reconstituted in 40% Propylene Glycol/40% Propylene Carbonate/20% of a 5% Sucrose clear solution resulting in a concentration of 2 mg/mL and administered to mice (10 mg/kg) as a single oral dose via gavage. […] The plasma is transferred into labeled polypropylene tubes and frozen at −70° C. until analyzed by LC/MS/MS.
Plasma samples at each timepoint were analyzed using a LC-MS/MS with a lower limit of quantification (LLOQ) of 1 ng/mL. […]
In addition to the above PK parameters, bioavailability (% F) was calculated.

T1 sequence (P11766 whole entry): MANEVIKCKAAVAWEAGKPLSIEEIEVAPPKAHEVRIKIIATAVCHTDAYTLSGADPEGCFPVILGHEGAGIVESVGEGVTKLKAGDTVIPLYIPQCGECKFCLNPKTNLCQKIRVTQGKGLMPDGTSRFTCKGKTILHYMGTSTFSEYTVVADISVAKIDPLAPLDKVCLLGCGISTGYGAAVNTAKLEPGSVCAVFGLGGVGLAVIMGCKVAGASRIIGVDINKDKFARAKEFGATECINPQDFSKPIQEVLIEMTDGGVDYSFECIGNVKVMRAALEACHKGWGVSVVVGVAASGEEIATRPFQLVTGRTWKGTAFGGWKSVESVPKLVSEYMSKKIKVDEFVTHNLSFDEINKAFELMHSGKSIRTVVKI

IC50 (GSNOR): < 100 nM
bioavailability [1]: 22%
Structure (SMILES): O=C1CC(c2ccc(C(=O)O)c(O)c2)C(c2ccccc2)=C(c2ccccc2)N1 (centres unmarked) [Example 6, 2-hydroxy-4-(2-oxo-5,6-diphenyl-1,2,3,4-tetrahydropyridin-4-yl)benzoic acid]
